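A five-concentration, 48-hour dose response in 96-well plates underlies each endpoint, interpolated linearly between surrounding concentrations. At the GI50, growth is halved.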 Calls of active or inactive are those of the source. Cut-off read from the data, not from the text of the source: active = GI50 up to about 1.1 µM and inactive = higher.
Legend:
Experiment in all cases: NCI-60 cell line screen, 48 h
OVCAR-8 = tested on: OVCAR-8
SF-268 = tested on: SF-268
CAKI-1 = tested on: CAKI-1
NCI/ADR-RES = tested on: NCI/ADR-RES
SK-MEL-5 = tested on: SK-MEL-5
SF-295 = tested on: SF-295
UACC-62 = tested on: UACC-62
HL-60 = tested on: HL-60
HOP-62 = tested on: HOP-62
SNB-19 = tested on: SNB-19
ACHN = tested on: ACHN
DU-145 = tested on: DU-145
RPMI-8226 = tested on: RPMI-8226
SN12C = tested on: SN12C
A549 = tested on: A549
MCF7 = tested on: MCF7
PC-3 = tested on: PC-3
TK-10 = tested on: TK-10
SW-620 = tested on: SW-620
MDA-N = tested on: MDA-N

Measured: GI50

Cc1nc2c(C)c3c([nH]c4ccc(Cl)cc43)c(C)c2c(O)c1C
inactive: OVCAR-8 4.88 µM | SF-268 16.1 µM | CAKI-1 5.71 µM | NCI/ADR-RES 8.39 µM | SK-MEL-5 11.8 µM | SF-295 5.89 µM | UACC-62 6.44 µM | HL-60 2.24 µM | HOP-62 4.23 µM | SNB-19 15.7 µM | ACHN 2.75 µM | DU-145 5.71 µM | RPMI-8226 3.3 µM | SN12C 5.24 µM | A549 2.82 µM | MCF7 2.2 µM | PC-3 5.89 µM | TK-10 7.33 µM | SW-620 7.52 µM | MDA-N 6.73 µM

CC(=O)OCC1OC(n2c3c(cc(C#N)c2=S)CCC3)C(OC(C)=O)C(OC(C)=O)C1OC(C)=O (stereo not given)
inactive: OVCAR-8 > 100 µM | SF-268 > 100 µM | CAKI-1 > 100 µM | NCI/ADR-RES > 100 µM | SK-MEL-5 > 100 µM | SF-295 > 100 µM | UACC-62 > 100 µM | HL-60 > 100 µM | HOP-62 > 100 µM | SNB-19 > 100 µM | ACHN > 100 µM | DU-145 > 100 µM | RPMI-8226 > 100 µM | SN12C > 100 µM | A549 > 100 µM | MCF7 > 100 µM | PC-3 > 100 µM | TK-10 > 100 µM | SW-620 > 100 µM | MDA-N > 100 µM

Cc1ccc([N+](=O)[O-])cc1NC1=NCCO1
inactive: OVCAR-8 > 100 µM | SF-268 > 100 µM | CAKI-1 > 100 µM | NCI/ADR-RES > 100 µM | SK-MEL-5 > 100 µM | SF-295 > 100 µM | UACC-62 > 100 µM | HL-60 > 100 µM | HOP-62 > 100 µM | SNB-19 > 100 µM | ACHN > 100 µM | DU-145 > 100 µM | RPMI-8226 > 100 µM | SN12C > 100 µM | A549 > 100 µM | MCF7 > 100 µM | PC-3 > 100 µM | TK-10 > 100 µM | SW-620 > 100 µM | MDA-N > 100 µM

C[C@H](CCC(=O)NCC(=O)O)[C@H]1CC[C@H]2[C@@H]3[C@H](O)C[C@@H]4C[C@H](O)CC[C@]4(C)[C@H]3CC[C@]12C
inactive: OVCAR-8 > 100 µM | SF-268 > 100 µM | CAKI-1 > 100 µM | NCI/ADR-RES > 100 µM | SK-MEL-5 > 100 µM | SF-295 > 100 µM | UACC-62 > 100 µM | HL-60 > 100 µM | HOP-62 > 100 µM | SNB-19 > 100 µM | ACHN > 100 µM | DU-145 > 100 µM | RPMI-8226 > 100 µM | SN12C > 100 µM | A549 > 100 µM | MCF7 > 100 µM | PC-3 > 100 µM | TK-10 > 100 µM | SW-620 > 100 µM | MDA-N > 100 µM

Reference: ChEMBL document CHEMBL1201862, “PubChem BioAssay data set” (2004)
